Assay results taken from patent US20250382302A1, “Anticancer polyheterocyclic compounds and associated methods” (University of Denver, priority 2024, published 2025).

Tests used:
MCF7 = experiment: NCI five-dose testing, MCF7; conditions: for TGI: Breast Cancer; for TGI / GI50: MCF7; for GI50 / CC50: Homo sapiens; for CC50: MCF7, read-out: LC50
RXF 393 = experiment: NCI five-dose testing, RXF 393; format: cell-based; conditions: Renal Cancer
EKVX = experiment: NCI five-dose testing, EKVX; format: cell-based; conditions: Non-Small Cell Lung Cancer
MDA-MB-468 = experiment: NCI five-dose testing, MDA-MB-468; conditions: for TGI: Breast Cancer; for TGI / GI50: MDA-MB-468; for GI50 / CC50: Homo sapiens; for CC50: MDA-MB-468, read-out: LC50
SK-MEL-5 = experiment: NCI five-dose testing, SK-MEL-5; format: cell-based; conditions: Melanoma; for GI50 / CC50: Homo sapiens; for CC50: read-out: LC50 (the source's name)
IGROV1 = experiment: NCI five-dose testing, IGROV1; format: cell-based
SK-MEL-2 = experiment: NCI five-dose testing, SK-MEL-2; format: cell-based; conditions: Melanoma
CCRF-CEM = experiment: NCI five-dose testing, CCRF-CEM; conditions: for GI50 / CC50: Homo sapiens; for CC50: read-out: LC50; for TGI: Leukemia
HL-60(TB) = experiment: NCI five-dose testing, HL-60(TB); conditions: for GI50 / CC50: Homo sapiens; for GI50: HL-60; for CC50: HL-60, read-out: LC50; for TGI: Leukemia, HL-60(TB)
OVCAR-4 = experiment: NCI five-dose testing, OVCAR-4; conditions: for GI50 / CC50: Homo sapiens; for GI50 / TGI: OVCAR-4; for CC50: OVCAR-4, read-out: LC50; for TGI: Ovarian Cancer
OVCAR-8 [1] = experiment: cells; conditions: Homo sapiens
NCI-H522 = experiment: NCI five-dose testing, NCI-H522
KM12 [2] = experiment: cells; conditions: Homo sapiens
KM12 [3] = conditions: Colon Cancer
MOLT-4 = experiment: NCI five-dose testing, MOLT-4; conditions: for GI50 / CC50: Homo sapiens; for GI50 / TGI: MOLT-4; for CC50: MOLT-4, read-out: LC50; for TGI: Leukemia
UO-31 [4] = experiment: cells; conditions: Homo sapiens
UO-31 [5] = conditions: Renal Cancer
T-47D = experiment: NCI five-dose testing, T-47D; conditions: for TGI: Breast Cancer, T-47D; for GI50 / CC50: Homo sapiens, T47D; for CC50: read-out: LC50
SNB-75 [6] = experiment: cells; conditions: Homo sapiens
NCI-H23 [7] = experiment: cells; conditions: Homo sapiens
OVCAR-8 [8] = conditions: Ovarian Cancer
UACC-62 [9] = conditions: Melanoma
ACHN [10] = experiment: cells; conditions: Homo sapiens
NCI-H23 [11] = conditions: Non-Small Cell Lung Cancer
UACC-62 [12] = experiment: cells; conditions: Homo sapiens
SNB-75 [13] = conditions: CNS Cancer
OVCAR-3 = experiment: NCI five-dose testing, OVCAR-3; conditions: for GI50 / CC50: Homo sapiens; for GI50 / TGI: OVCAR-3; for CC50: OVCAR-3, read-out: LC50; for TGI: Ovarian Cancer
RPMI-8226 = experiment: NCI five-dose testing, RPMI-8226
ACHN [14] = conditions: Renal Cancer
SR = experiment: NCI five-dose testing, SR
[15] = Homo sapiens, read-out: LC50 (the source's name)

**Q.** How did the TGI (MCF7) turn out when `COC1=CC2C3=C(C(=O)c4ccccc4C3=O)N3C(=O)C(=O)N(Cc4ccsc4)[C@]23C=C1` (stereo partly drawn) was run?
**A.** 5.88 × 10^−6

**Q.** What about the GI50 (MCF7) of the same compound?
**A.** 1.26 µM

**Q.** What about the CC50 (MCF7) of the same compound?
**A.** 25.2 µM

**Q.** And the GI50 (RXF 393; Homo sapiens)?
**A.** 1.43 µM

**Q.** And the CC50 (RXF 393; [15])?
**A.** 9.92 µM

**Q.** And the TGI (RXF 393)?
**A.** 3.76 × 10^−6

**Q.** And the GI50 (EKVX; Homo sapiens)?
**A.** 1.11 µM

**Q.** And the CC50 (EKVX; [15])?
**A.** 25.7 µM

**Q.** And the TGI (EKVX)?
**A.** 5.75 × 10^−6

**Q.** What about the TGI (MDA-MB-468) of the same compound?
**A.** 8.16 × 10^−7

**Q.** What about the GI50 (MDA-MB-468) of the same compound?
**A.** 0.113 µM

**Q.** And the CC50 (MDA-MB-468)?
**A.** 9.32 µM

**Q.** What about the GI50 (SK-MEL-5) of the same compound?
**A.** 0.01 µM

**Q.** What about the CC50 (SK-MEL-5) of the same compound?
**A.** 6.04 µM

**Q.** What about the TGI (SK-MEL-5) of the same compound?
**A.** 2.16 × 10^−6

**Q.** What about the GI50 (IGROV1; Homo sapiens, IGROV-1, Ovarian Cancer) of the same compound?
**A.** 1.27 µM

**Q.** And the CC50 (IGROV1; Homo sapiens, IGROV-1, Ovarian Cancer, read-out: LC50 (the source's name))?
**A.** 70.5 µM

**Q.** What about the TGI (IGROV1; Ovarian Cancer) of the same compound?
**A.** 1.40 × 10^−5

**Q.** Which results are given for `C[C@]12C3=C(C(=O)c4ccccc4C3=O)N3C(=O)C(=O)N4C[C@H]5C[C@@]16CC6[C@@]5(C)[C@@]432` (stereo partly drawn)?
**A.** GI50 (SK-MEL-2; Homo sapiens): 1.27 µM; CC50 (SK-MEL-2; [15]): 5.2 µM; TGI (SK-MEL-2): 2.57 × 10^−6; GI50 (CCRF-CEM): 1.23 µM; CC50 (CCRF-CEM): 5 µM; TGI (CCRF-CEM): 2.48 × 10^−6; TGI (MDA-MB-468): 1.55 × 10^−6; GI50 (MDA-MB-468): 0.384 µM; CC50 (MDA-MB-468): 4.03 µM; GI50 (HL-60(TB)): 0.267 µM; CC50 (HL-60(TB)): 3.28 µM; TGI (HL-60(TB)): 1.06 × 10^−6; GI50 (SK-MEL-5): 1.3 µM; CC50 (SK-MEL-5): 7.32 µM; TGI (SK-MEL-5): 3.08 × 10^−6; GI50 (OVCAR-4): 1.36 µM; CC50 (OVCAR-4): 5.17 µM; TGI (OVCAR-4): 2.65 × 10^−6

**Q.** What does the source list for `C=CCN(C(=O)C(=O)NC1=CC(=O)c2ccccc2C1=O)c1c(OC)cccc1OC`?
**A.** TGI (MCF7): 2.78 × 10^−6; GI50 (MCF7): 1.45 µM; CC50 (MCF7): 5.32 µM; GI50 (OVCAR-8 [1]; OVCAR-8): 1.36 µM; CC50 (OVCAR-8 [1]; OVCAR-8, read-out: LC50): 5.36 µM; GI50 (NCI-H522; Homo sapiens, NCI-H522): 1.25 µM; CC50 (NCI-H522; Homo sapiens, NCI-H522, read-out: LC50): 5.03 µM; TGI (NCI-H522; Non-Small Cell Lung Cancer, NCI-H522): 2.51 × 10^−6; GI50 (KM12 [2]; KM12): 0.626 µM; CC50 (KM12 [2]; KM12, read-out: LC50): 6.39 µM; TGI (KM12 [3]): 2.28 × 10^−6; GI50 (MOLT-4): 0.441 µM; CC50 (MOLT-4): 4.04 µM; TGI (MOLT-4): 1.62 × 10^−6; GI50 (UO-31 [4]; UO-31): 1.44 µM; CC50 (UO-31 [4]; UO-31, read-out: LC50): 5.31 µM; TGI (UO-31 [5]): 2.76 × 10^−6; TGI (T-47D): 2.81 × 10^−6; GI50 (T-47D): 1.48 µM; CC50 (T-47D): 5.33 µM; GI50 (CCRF-CEM): 0.781 µM; CC50 (CCRF-CEM): 4.55 µM; TGI (CCRF-CEM): 2.04 × 10^−6; GI50 (SNB-75 [6]; SNB-75): 1.43 µM; CC50 (SNB-75 [6]; SNB-75, read-out: LC50): 5.99 µM; GI50 (NCI-H23 [7]; NCI-H23): 1.44 µM; CC50 (NCI-H23 [7]; NCI-H23, read-out: LC50): 5.39 µM; TGI (MDA-MB-468): 8.97 × 10^−7; GI50 (MDA-MB-468): 0.275 µM; CC50 (MDA-MB-468): 3 µM; TGI (OVCAR-8 [8]): 2.70 × 10^−6; GI50 (HL-60(TB)): 0.249 µM; CC50 (HL-60(TB)): 1.52 µM; TGI (HL-60(TB)): 5.42 × 10^−7; TGI (UACC-62 [9]): 2.81 × 10^−6; GI50 (ACHN [10]): 1.35 µM; CC50 (ACHN [10]; read-out: LC50): 5.21 µM; TGI (NCI-H23 [11]): 2.79 × 10^−6; GI50 (UACC-62 [12]; UACC-62): 1.48 µM; CC50 (UACC-62 [12]; UACC-62, read-out: LC50): 5.35 µM; TGI (SNB-75 [13]): 2.93 × 10^−6; GI50 (OVCAR-3): 1.03 µM; CC50 (OVCAR-3): 4.73 µM; TGI (OVCAR-3): 2.21 × 10^−6; GI50 (OVCAR-4): 1.22 µM; CC50 (OVCAR-4): 4.98 µM; TGI (OVCAR-4): 2.46 × 10^−6; GI50 (RPMI-8226; Homo sapiens, RPMI-8226): 1.04 µM; CC50 (RPMI-8226; Homo sapiens, RPMI-8226, read-out: LC50): 4.74 µM; TGI (RPMI-8226; Leukemia, RPMI-8226): 2.22 × 10^−6; TGI (ACHN [14]): 2.66 × 10^−6

**Q.** What does the source list for `O=C1C=C(NC(=O)[C@H](Cc2ccccc2)n2cccc2)C(=O)c2ccccc21`?
**A.** GI50 (MOLT-4): 0.685 µM; CC50 (MOLT-4): 4.29 µM; TGI (MOLT-4): 1.84 × 10^−6; TGI (T-47D): 2.74 × 10^−6; GI50 (T-47D): 1.42 µM; CC50 (T-47D): 5.26 µM; GI50 (CCRF-CEM): 1.11 µM; CC50 (CCRF-CEM): 4.84 µM; TGI (CCRF-CEM): 2.32 × 10^−6

**Q.** For `C=CCCOC1=C[C@H]2C3=C(C(=O)c4ccccc4C3=O)N3C(=O)C(=O)N(Cc4ccc(C)cc4)[C@]23C=C1`, which GI50 (SR; Homo sapiens) is on record?
**A.** 0.862 µM

**Q.** And the CC50 (SR; Homo sapiens, read-out: LC50)?
**A.** ≥ 100 µM

**Q.** What about the TGI (SR; Leukemia) of the same compound?
**A.** 1.00 × 10^−4

**Q.** And the TGI (MDA-MB-468)?
**A.** 6.86 × 10^−7

**Q.** What about the GI50 (MDA-MB-468) of the same compound?
**A.** 0.0209 µM

**Q.** And the CC50 (MDA-MB-468)?
**A.** ≥ 100 µM

**Q.** And the GI50 (OVCAR-4)?
**A.** 0.875 µM

**Q.** What about the CC50 (OVCAR-4) of the same compound?
**A.** ≥ 100 µM

**Q.** And the TGI (OVCAR-4)?
**A.** 7.04 × 10^−6

**Q.** `COC1C[C@H]2C[C@]34CC3[C@H]2[C@]23C4C4=C(C(=O)c5ccccc5C4=O)N2C(=O)C(=O)N13` (stereo partly drawn) was tested. Which TGI (MDA-MB-468) did it give?
**A.** 3.18 × 10^−6

**Q.** What about the GI50 (MDA-MB-468) of the same compound?
**A.** 1.31 µM

**Q.** What about the CC50 (MDA-MB-468) of the same compound?
**A.** 7.73 µM

**Q.** And the GI50 (OVCAR-3)?
**A.** 1.49 µM

**Q.** And the CC50 (OVCAR-3)?
**A.** 19.6 µM

**Q.** What about the TGI (OVCAR-3) of the same compound?
**A.** 4.93 × 10^−6
